According to patent US20260256761A1, “COMPOSITIONS AND METHODS FOR THE IDENTIFICATION OF INHIBITORS OF AND TREATMENT FOR ECTOPIC CALCIFICATION” (UNIVERSITY OF PITTSBURGH-OF THE COMMONWEALTH SYSTEM OF …, priority 2022, published 2026):

Tests used:
[1] = test system: human aortic valve interstitial cells (AVICs); experiment: Osteogenic assay: calcification of human AVICs in osteogenic media (Alizarin Red); type: cell-based; conditions: for calcification of AVICs: STAT5 inhibitor 10 μM added every two days during osteogenic (OST) treatment, after 21 days of treatment (FIG. 6D)
Protocol: Human cell isolation. Patient-specific lines were established by using the same valves for histopathology, RNA, and cell isolation. Primary aortic valve interstitial cells (AVICs) were obtained from the patient aortic valve. Briefly, leaflets were washed with PBS containing 10 mg/ml gentamicin (GIBCO) and 250 μg/ml fungizone (GIBCO) and dissociated with 0.1% collagenase II at 37 C and 5% of CO2 for 18 hours. Then, the tissue was further dissociated by gently mixing it by pipetting with a serological pipette to ensure the release of A VICs and then passed through a […] filter to remove debris. Cells were pelleted and then resuspended in Dulbecco's Modified Eagle's Medium (DMEM) supplemented with 10% fetal bovine serum (FBS) and 1×penicillin-streptomycin (P/S). Human coronary artery smooth muscle cells (CASMC) were obtained from patient coronary. Briefly, vessels were washed with PBS containing 10 mg/ml gentamicin (GIBCO) and 250 μg/ml fungizone (GIBCO). Vessels were cut open to expose the lumen and intima and adventitia were gently scrapped. Vessels were then sectioned and dissociated with 0.1% collagenase II for 3 hrs. Cells were pelleted and then seed and expanded.
(§1) Cell Culture. AVICs lines were expanded in Dulbecco's Modified Eagle's Medium supplemented with 10% fetal bovine serum and 1×penicillin-streptomycin. Cells were used between passages 4 and 15. Growth media was changed every three days, and cells were split 1:2 when confluent. CASMC lines were expanded in smooth muscle media SMGM (CC-3181) supplemented with BULLETKIT (CC-4149). Human MSCs (PT-2501, Lonza) were expanded on Minimum Essential Medium alpha without nucleosides and supplemented with 10% fetal bovine serum and 1×penicillin-streptomycin and used between passages 4 and 10. Cells are routinely tested for mycoplasma contamination.
(§2) Osteogenic Assay. […]
(§3) Alizarin Red Staining and Quantification. […] Absorbance was at 405 nm using a 96-well plate spectrophotometer.

hCASMC = experiment: Osteogenic assay: calcification of human coronary artery smooth muscle cells; type: cell-based; conditions: inhibitor 10 μM, osteogenic media, 21 days (FIG. 16D, FIG. 6E)
Protocol: Scalebar 100 μm (middle panel). Quantification of PLA signal is shown on the right graphs. n=4. […] Diagram depicting STAT5 and TERT binding RUNX2 promoter and the positions of the predicted STAT5 binding sites (bottom panel). […] Scalebar 400 μm n=8; means±SD. Quantification of calcification is shown on the right graph. Data is represented as means±SD. P were calculated by Kruskal-Wallis H test with Dunn pairwise comparison post hoc test. Scalebar 400 um. […] When the cells reached confluence, media was replaced with osteogenic media (Minimum Essential Medium alpha with nucleosides, 10% FBS, 1×P/S, 10 mM glycerol phosphate, 50 μM ascorbic acid 2-phosphate, and 100 nM dexamethasone) for 21 days. No treatment media consisted of Minimum Essential Medium alpha with nucleosides, 10% FBS, 1×P/S. Media was replaced every four days.
Quantification of protein levels. n=4 control, n=4 CAVD; means±SD; two-way ANOVA. […] Scalebar 100 um. Quantification of PLA is shown on the right graph. n=4. […] P were calculated by Kruskal-Wallis H test with Dunn pairwise comparison post hoc test. Scalebar 400 um. […] Scalebar 50 um.
Human cell isolation. Patient-specific lines were established by using the same valves for histopathology, RNA, and cell isolation. Primary aortic valve interstitial cells (AVICs) were obtained from the patient aortic valve. […]
Alizarin Red Staining and Quantification. […]

hMSCs = experiment: Osteogenic assay: calcification of human mesenchymal stem cells; type: cell-based; conditions: inhibitor 10 μM, osteogenic media, 21 days (FIG. 17)
Protocol: When cells reached confluence, media was replaced with osteogenic media (Minimum Essential Medium alpha with nucleosides, 10% FBS 1×P/S, 10 mM glycerol phosphate, 50 uM ascorbic acid 2-phosphate, and 100 nM dexamethasone) for 21 days. No treatment media consisted of Minimum Essential Medium alpha with nucleosides, 10% FBS, 1×P/S. Media was replaced every four days. […] P were calculated by Kruskal-Wallis H test with Dunn pairwise comparison post hoc test. Scalebar 400 μm.
as §1, §2, §3

STAT5A = molecular target: T1, STAT5A (Homo sapiens, UniProt P42229); conditions: as reported; cited from earlier work
T1 sequence (P42229 1-794): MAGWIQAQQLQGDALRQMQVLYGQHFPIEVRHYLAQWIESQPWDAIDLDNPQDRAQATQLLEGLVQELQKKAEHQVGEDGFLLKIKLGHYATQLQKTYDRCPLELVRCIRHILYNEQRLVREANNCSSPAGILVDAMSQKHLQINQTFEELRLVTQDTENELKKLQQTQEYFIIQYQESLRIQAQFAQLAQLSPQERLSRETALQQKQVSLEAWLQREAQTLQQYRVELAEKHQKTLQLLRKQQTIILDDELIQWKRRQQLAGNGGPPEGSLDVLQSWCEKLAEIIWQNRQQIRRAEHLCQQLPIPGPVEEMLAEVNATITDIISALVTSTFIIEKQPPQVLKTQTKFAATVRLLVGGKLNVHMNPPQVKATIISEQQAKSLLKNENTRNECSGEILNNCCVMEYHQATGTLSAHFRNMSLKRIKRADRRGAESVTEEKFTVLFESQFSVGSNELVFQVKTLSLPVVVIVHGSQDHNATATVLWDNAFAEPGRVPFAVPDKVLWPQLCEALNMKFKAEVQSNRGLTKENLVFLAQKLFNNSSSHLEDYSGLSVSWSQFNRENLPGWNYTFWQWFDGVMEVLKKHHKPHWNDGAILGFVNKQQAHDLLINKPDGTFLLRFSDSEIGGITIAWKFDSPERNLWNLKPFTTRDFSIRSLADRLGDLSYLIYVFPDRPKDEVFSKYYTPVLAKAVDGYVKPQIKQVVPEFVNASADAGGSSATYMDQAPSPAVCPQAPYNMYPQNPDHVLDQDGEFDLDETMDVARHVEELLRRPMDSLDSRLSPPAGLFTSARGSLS

Structure (SMILES) | ability of AVICs to calcify ([1]; BIBR1532 at 1, 10, or 100 nM added every two days during OST treatment, 28 days (FIG. 13C)) | calcification of AVICs [1] | calcification in hCASMC (hCASMC) | calcification in hMSCs (hMSCs) | specific inhibition of STAT5A isoform (STAT5A)
C/C(=C\C(=O)Nc1ccccc1C(=O)O)c1ccc2ccccc2c1 [BIBR1532] | did not alter the ability of AVICs to calcify |  |  |  | 
COc1cc(-c2cc(OP(=O)(O)O)cc(-c3cc(OC)c(OC)c(OC)c3)c2)cc(OC)c1OC [StafiA-1] |  | significantly inhibited calcification | significantly reduced the calcification | significantly reduced the calcification | specifically inhibit
O=C(COc1ccc2cc(C(=O)Nc3ccccc3)ccc2c1)NCc1ccc(OP(=O)(O)O)c(OP(=O)(O)O)c1 [StafiB-1] |  | this inhibition was of a greater extent than the inhibition observed when AVICs were treated with StafiB-1 | did not |  | 
